The values that follow come from patent publication US5708007A, “2-(piperidin-4-yl, pyridin-4-yl and tetrahydropyridin-4-yl) benzofuran-7-ol and carbamate derivatives for treating memory dysfunction” (priority 1996, dated 1998).

For the assay, the target named is T1, Brain AChE (Rattus norvegicus, UniProt P37136).
T1 construct: corpora striata dissected free, weighed and homogenized in 19 volumes; from tissue; host or cells: corpora striata of male Wistar rats, crude homogenate in 0.05M phosphate buffer
T1 sequence (P37136 32-614): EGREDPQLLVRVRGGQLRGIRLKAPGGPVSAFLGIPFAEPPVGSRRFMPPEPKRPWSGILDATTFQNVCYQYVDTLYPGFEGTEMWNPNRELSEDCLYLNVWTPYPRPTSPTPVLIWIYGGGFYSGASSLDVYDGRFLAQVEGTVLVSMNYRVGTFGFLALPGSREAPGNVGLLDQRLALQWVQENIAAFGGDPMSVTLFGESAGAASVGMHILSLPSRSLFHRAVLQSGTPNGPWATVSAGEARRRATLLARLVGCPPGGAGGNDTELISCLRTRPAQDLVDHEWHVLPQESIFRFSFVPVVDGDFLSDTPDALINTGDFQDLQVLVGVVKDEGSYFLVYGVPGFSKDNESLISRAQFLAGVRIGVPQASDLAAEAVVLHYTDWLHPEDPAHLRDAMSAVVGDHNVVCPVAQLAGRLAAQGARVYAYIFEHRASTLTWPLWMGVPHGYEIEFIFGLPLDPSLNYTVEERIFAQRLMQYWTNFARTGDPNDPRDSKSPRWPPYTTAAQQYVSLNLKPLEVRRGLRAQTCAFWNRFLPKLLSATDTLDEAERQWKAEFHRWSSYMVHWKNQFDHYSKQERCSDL
Kind of assay: biochemical. Also on record: species or system rat (male Wistar). The note with it: rat striatum homogenate; acetylthiocholine 5 mM final; pH 7.2; 10 min preincubation at 37° C.; log-probit analysis; read-out: Inhibitory Concentration (μM) Brain AChE. The text has this:
Cholinesterases are found throughout the body, both in the brain and in serum. However, only brain acetylcholinesterase (AChE) distribution is correlated with central cholinergic innervation. […] We have determined in vitro inhibition of acetylcholinesterase activity in rat striatum according to the method described below.
In Vitro Inhibition of Acetylcholinesterase Activity in Rat Striatum
The method described below was used in this invention for assaying anticholinesterase activity. This is a modification of the method of Ellman et al., Biochem. Pharmacol. 7, 88 (1961).
1. 0.05M Phosphate buffer, pH 7.2
(c) add (a) to (b) until pH reaches 7.2
4. A 2 mM stock solution of the test drug is made up in a suitable solvent and brought to volume with 0.5 mM DTNB (reagent 3). Drugs are serially diluted (1:10) such that the final concentration (in cuvette) is 10^-4 M and screened for activity. If active, IC50 values are determined from the inhibitory activity of subsequent concentrations.
Enzyme activity is measured with the Beckman DU-50 spectrophotometer. This method can be used for IC50 determinations and for measuring kinetic constants.
Reagents are added to the blank and sample cuvettes as follows:
This program also calculates the rate of absorbance change for each cuvette.
Substrate concentration is 10 mM diluted 1:2 in assay yielding final concentration of 5 mM.
IC50 values are calculated from log-probit analysis.
Consider `CNC(=O)Oc1cccc2cc(C3CCN(C)CC3)oc12` [2-(1-METHYL-4-PIPERIDINYL)-BENZOFURAN-7-YL METHYL CARBAMATE], for which the IC50 came to 1.8 µM.

Consider `CNC(=O)Oc1cccc2cc(-c3ccncc3)oc12` [2-(4-PYRIDINYL)BENZOFURAN-7-YL METHYL CARBAMATE], for which the IC50 amounted to 1.2 µM.

With `CN(C)C(=O)Oc1cccc2cc(C3CCNCC3)oc12` [2-(4-PIPERIDINYL)BENZOFURAN-7-YL DIMETHYL CARBAMATE HEMIFUMARATE], the IC50 was found to be 1.9 µM.
